The text below walks through data of patent publication US10730826B2, “Ketone inhibitors of lysine gingipain” (CORTEXYME, INC., priority 2016, dated 2020).

Where “and” joins values, the source holds several entries; their conditions need not be identical. Identical values can stand only once. Like-named read-outs stand apart in the source and are kept apart here. A value given as a limit tells only on which side of the number the result lay.

A short description of data set [1]: Pharmacokinetics in male CD-1 mice dosed p.o. The data set is classed as in vivo. The note with it: p.o. 10 mg/kg, compared to reference compound 73.
The test system of data set [2] is lysine gingipain (Kgp). Briefly: biochemical. The data set is classed as biochemical, Porphyromonas gingivalis. Conditions: as compared to reference compound 73. As for the experimental part:
(§1) The specific assay conditions were as follows. Buffer: pH=7.5, 100 mM Tris-HCl, 75 mM NaCl, 2.5 mM CaCl2), 10 mM cysteine, 1% DMSO after all additions. Protein: 0.1 nM Kgp, isolated from culture of Porphyromonas gingivalis, as described by Pike et al. (J. Biol. Chem. 1994, 269(1), 406), and Potempa and Nguyen (Current Protocols in Protein Science. 2007, 21.20.1-21.20.27). Fluorogenic substrate: 10 μM Z-His-Glu-Lys-MCA. Time=90 minutes. Temperature=37° C.
(§2) Further assays to measure the inhibitory activity of compounds of the present invention against Kgp and cathepsins B, H, K, L, and S were conducted as described in Example 66. The capacities of the compounds to inhibit the activity of cathepsins F, V, and Z were also measured.

Another data set deals with Cathepsin H (Homo sapiens (Human), UniProt P09668). Briefly: Cathepsin H inhibition assay. The data set is classed as biochemical. The note with it: for IC50: read-out: IC50 (nM) CatH. As for the experimental part: (§3) The capacities of compounds of the present invention to inhibit the activity of cathepsins B, H, K, L, and S were measured in similar assays. Boc-Leu-Arg-Arg-AMC (20 μM) in sodium acetate buffer (50 mM, pH 5.5) containing DTT (1 mM) and EDTA (2 mM) was used for the Cathepsin B assay. L-Arg-AMC (20 μM) in sodium acetate buffer (50 mM, pH 5.5) containing DTT (1 mM) and EDTA (2 mM) was used for the Cathepsin H assay. Z-Phe-Arg-AMC (10 μM) in HEPES buffer (50 mM, pH 7.4) containing DTT (2.5 mM) and EDTA (1 mM) was used for the Cathepsin K assay. Z-Phe-Arg-AMC (20 μM) in sodium acetate buffer (50 mM, pH 5.5) containing DTT (1 mM) and EDTA (2 mM) was used for the Cathepsin L assay. Z-Leu-Arg-AMC (10 μM) in sodium acetate buffer (25 mM, pH 4.5) containing DTT (2.5 mM) and NaCl (50 mM) was used for the Cathepsin S assay. The capacities of the compounds to inhibit the activity of cathepsins F, V, and Z were also measured.
as §2

The target of another data set is Cathepsin B (Homo sapiens (Human), UniProt P07858). Briefly: Cathepsin B inhibition assay. The data set is classed as biochemical. Conditions: for IC50: read-out: IC50 (nM) CatB. As for the experimental part:
as §3, §2

In another data set the target is Cathepsin K (Homo sapiens (Human), UniProt P43235). Briefly: Cathepsin K inhibition assay. Conditions: for IC50: read-out: IC50 (nM) CatK. The data set is classed as biochemical. As for the experimental part: as §3, §2
The next data set addresses cathepsin V (Homo sapiens (Human), UniProt O60911). Briefly: Cathepsin V inhibition assay. The data set is classed as biochemical. Conditions: Table 4; read-out: IC50 (nM) CatV. As to the method: as §3, §2
For the next data set, the target named is Cathepsin L (Homo sapiens (Human), UniProt P07711). Briefly: Cathepsin L inhibition assay. The data set is classed as biochemical. The note with it: for IC50: read-out: IC50 (nM) CatL. As for the experimental part:
as §3, §2

The target of another data set is Cathepsin S (Homo sapiens (Human), UniProt P25774). Briefly: Cathepsin S inhibition assay. The data set is classed as biochemical. Conditions: for IC50: read-out: IC50 (nM) CatS. As to the method:
as §3, §2

Data set [3] concerns the target lysine gingipain (Kgp) (Porphyromonas gingivalis (Bacteroides gingivalis), UniProt P72194). Briefly: biochemical. The data set is classed as biochemical. The note with it: IC50 (nM) Kgp. As to the method: as §1, §2
The target of another data set is cathepsin Z (Homo sapiens (Human), UniProt Q9UBR2). Briefly: Cathepsin Z inhibition assay. The data set is classed as biochemical. The note with it: Table 4; read-out: IC50 (nM) CatZ. As to the method: as §3, §2
In a further data set the target is cathepsin F (Homo sapiens (Human), UniProt Q9UBX1). Briefly: Cathepsin F inhibition assay. The data set is classed as biochemical. Conditions: Table 4; read-out: IC50 (nM) CatF. As for the experimental part:
as §3, §2

For a further data set, the target named is Kgp (Porphyromonas gingivalis (Bacteroides gingivalis), UniProt Q51817). Briefly: Cy5 activity-based probe detection of Kgp in P. gingivalis lysate. The data set is classed as binding. As for the experimental part:
It has a warhead that binds to the Kgp active site, a peptide-based core, and a Cy5 fluorophore for detection. Labeled target proteins can be visualized by biochemical separation of a sample with fractionation by 2-D gel electrophoresis and detection of fluorescent signals from Cy5 at the appropriate excitation and emission wavelength. Incubation of a fixed concentration of the probe following binding of Kgp to a test compound (e.g., a candidate Kgp inhibitor) results in binding of the activity probe to Kgp active sites not already bound by the test compound.
10^8 bacteria were collected and centrifuged at 5000 g for 10 min at 4° C., and the supernatant was discarded. The bacterial cell pellet was lysed with 1 mL of B-Per lysis buffer (Thermo Fischer) on ice for 10 min, then centrifuged for 10 min at 14000 g, 4° C. Supernatant-containing protein lysate was collected. Biological samples were lysed with B-Per lysis buffer for 10 min at 4° C.
Biological samples, P. gingivalis lysate or purified Kgp were incubated with quenchable Cy5 probe compound 71 (1 μM) for 1 h at 37° C. with shaking. Then, samples were denatured with NUPAGE LDS sample buffer (Thermo Fisher) containing 50 mM DTT at 95° C. for 10 min and subjected to SDS-PAGE electrophoresis using a Criterion 4-15% precast gel (Bio-Rad) and Tris/Glycine/SDS running buffer (Bio-Rad). The gel was run at 75V for 10 min and then 125V for 1.5 h. The gel was then removed from the plastic cassette and subjected to Cy5 visualization with a ChemiDoc imaging system (Bio-Rad).
Samples were labeled with quenchable Cy5 probe compound 71 (1 μM) for 1 h at 37° C. with shaking. For immunoprecipitation of Cy5 labeled Kgp, the samples were then incubated with 10 μg of rabbit polyclonal CAB102 antibody with rotation overnight at 4° C. Then, samples were incubated with prewashed Dynabead Protein G beads with rotation for 20 min at room temperature. The samples were washed 4 times with 200 μL of washing buffer, using a magnetic rack. […]

With `COC(C)(C)C(=O)N[C@@H](CCCCN)C(=O)COc1c(F)ccc(F)c1F` [Compound 47, (S)—N-(7-amino-2-oxo-1-(2,3,6-trifluorophenoxy)heptan-3-yl)-2-methoxy-2-methylpropanamide], in data set [1], the “concentrations in the brain and cerebrospinal fluid (CSF)” value was “increased concentrations in the brain and cerebrospinal fluid (CSF)”; the oral availability result is given as “improved oral availability”; the plasma concentrations entry is listed as “increased plasma concentrations”. Further, in the data set with lysine gingipain (Kgp) [2], the “selectivity for Kgp over endogenous cathepsins” value (shortened to “selectivity for Kgp”) is given as “far more selective”.

A word on the IC50: it is the concentration that gives 50% inhibition. On to `NCCCCC(NC(=O)C1CCCC1)C(=O)COc1c(F)cccc1F` (stereo not shown) [Compound 2a], for which the IC50 was 1550 nM at Cathepsin H (Table 3); 1550 nM at Cathepsin H (Table 4); above 10000 nM on Cathepsin B (Table 3); above 10000 nM at Cathepsin B (Table 4); 2290 nM on Cathepsin K (Table 3); 2290 nM on Cathepsin K (Table 4). Further, the IC50 on cathepsin V is above 10000 nM; at Cathepsin L (Table 3), above 100000 nM; on Cathepsin L (Table 4), above 10000 nM; at Cathepsin S (Table 3) it was above 100000 nM; on Cathepsin S (Table 4), above 10000 nM; on lysine gingipain (Kgp) [3] (Table 3), ≤ 0.05 nM and 0.11 nM. In addition, the IC50 against lysine gingipain (Kgp) [3] (Table 4) was below 0.05 nM.

With `NCCCCC(NC(=O)c1ccc(F)nc1)C(=O)COc1ccon1` (stereo not shown) [Compound 55a], the IC50 at Cathepsin H (Table 4) was above 10000 nM; on Cathepsin B (Table 4) it was above 10000 nM; at Cathepsin K (Table 4), 1000 nM; at cathepsin V, above 10000 nM; on Cathepsin L (Table 4), 6380 nM; on Cathepsin S (Table 4), above 10000 nM. Also, the IC50 at lysine gingipain (Kgp) [3] (Table 4) stood at 0.12 nM.

In the case of `NCCCC[C@H](NC(=O)C1CCCC1)C(=O)COc1c(F)cccc1F` [Compound 2, (S)—N-(7-amino-1-(2,6-difluorophenoxy)-2-oxoheptan-3-yl)cyclopentanecarboxamide], the “CatH IC50 relative to reference compound 73” value at Cathepsin H (ratio to IC50 of compound 73) is “more than ten times higher”. For the same molecule, the “CatB IC50 relative to reference compound 73” value at Cathepsin B (ratio to IC50 of compound 73) is listed as “more than 20 times”. Besides, the “CatK IC50 relative to reference compound 73” value on Cathepsin K (ratio to IC50 of compound 73) is “more than 100 times”. For the same molecule, at Cathepsin L (ratio to IC50 of compound 73), the “CatL IC50 relative to reference compound 73” value is listed as “more than 100 times”. The “CatS IC50 relative to reference compound 73” value on Cathepsin S (ratio to IC50 of compound 73) was “more than ten times higher”. Also, the “selectivity for Kgp” value with lysine gingipain (Kgp) [2] is listed as “increased selectivity”.

In the case of `COC(C)(C)C(=O)NC(CCCCN)C(=O)COC(C(F)(F)F)C(F)(F)F` (stereo not shown) [Compound 69a], the IC50 on Cathepsin H (Table 4), at cathepsin Z, at Cathepsin B (Table 4), on Cathepsin K (Table 4), on Cathepsin L (Table 4) and at Cathepsin S (Table 4) was above 10000 nM throughout. For the same molecule, the IC50 is 0.21 nM against lysine gingipain (Kgp) [3] (Table 4) and above 10000 nM on cathepsin F.

As to `C[N+]1=C(/C=C/C=C/C=C2\N(CCCCCC(=O)NCc3cn(-c4cccc(C(=O)N[C@@H](CCCCN)C(=O)COc5c(F)cc(CNC(=O)C6CCN(S(=O)(=O)c7ccccc7-c7c8cc/c(=[N+]9\CCc%10cc(S(=O)(=O)O)ccc%109)cc-8oc8cc(N9CCc%10cc(S(=O)(=O)O)ccc%109)ccc78)CC6)cc5F)c4)nn3)c3ccc(S(=O)(=O)O)cc3C2(C)C)C(C)(C)c2cc(S(=O)(=O)O)ccc21` [Compound 71], the specificity of detection result at Kgp (W83 vs Kgp knockout strain) is reported as “specific for Kgp”. Besides, the “apparent limit of detection of Kgp” value on Kgp (probe 1 μM) came out at 500 CFU.

As to `COC(C)(C)C(=O)N[C@@H](CCCCN)C(=O)COC(C(F)(F)F)C(F)(F)F` [Compound 69, (S)—N-(7-amino-1-((1,1,1,3,3,3-hexafluoropropan-2-yl)oxy)-2-oxoheptan-3-yl)-2-methoxy-2-methylpropanamide], in [1], the “concentrations in the brain and cerebrospinal fluid (CSF)” value was “increased concentrations in the brain and cerebrospinal fluid (CSF)”; the oral availability result is listed as “improved oral availability”; the plasma concentrations entry was “increased plasma concentrations”. Also, the “selectivity for Kgp” value with lysine gingipain (Kgp) [2] is recorded as “far more selective”.

Regarding `NCCCCC(NC(=O)C1CCCC1)C(=O)COC(C(F)(F)F)C(F)(F)F` (stereo not shown) [Compound 18a], the IC50 at Cathepsin H (Table 4), at Cathepsin B (Table 4), at Cathepsin K (Table 4), on cathepsin V, at Cathepsin L (Table 4) and on Cathepsin S (Table 4) was above 10000 nM in each case. The half-maximal inhibitory concentration (IC50) at lysine gingipain (Kgp) [3] (Table 3) was 0.5 nM; against lysine gingipain (Kgp) [3] (Table 4), 0.5 nM; on cathepsin F, above 10000 nM.

Take `COC(C)(C)C(=O)NC(CCCCN)C(=O)COc1c(F)ccc(F)c1F` (stereo not shown) [Compound 47a]: the 50% inhibitory concentration (IC50) is above 10000 nM on Cathepsin H (Table 4); above 10000 nM on Cathepsin B (Table 4); 9000 nM at Cathepsin K (Table 4); above 10000 nM on cathepsin V; above 10000 nM at Cathepsin L (Table 4); above 10000 nM on Cathepsin S (Table 4). Moreover, the results for the half-maximal inhibitory concentration (IC50) at lysine gingipain (Kgp) [3] (Table 4) and at cathepsin F were 0.06 nM and above 10000 nM, respectively.

As to `NCCCC[C@H](NC(=O)c1ccc(F)nc1)C(=O)COc1ccon1` [Compound 55, (S)—N-(7-amino-1-(isoxazol-3-yloxy)-2-oxoheptan-3-yl)-6-fluoronicotinamide], the “selectivity for Kgp” value in the data set on lysine gingipain (Kgp) [2] is listed as “far more selective”.

Take `NCCCCC(NC(=O)c1ccccn1)C(=O)COc1c(F)ccc(F)c1F` (stereo not shown) [Compound 50a]: the IC50 was above 10000 nM at Cathepsin H (Table 4); above 10000 nM at Cathepsin B (Table 4); 1000 nM at Cathepsin K (Table 4); above 10000 nM at cathepsin V; above 10000 nM at Cathepsin L (Table 4); above 10000 nM on Cathepsin S (Table 4). Further, the values for the IC50 against lysine gingipain (Kgp) [3] (Table 4) and at cathepsin F were 0.09 nM and above 10000 nM, respectively.
